The source of these data is patent US20090258069A1, “Delivery of LFA-1 antagonists to the gastrointestinal system” (priority 2008, published 2009).

The test system of this data set is tester strains. Kind of data set: In vitro Ames bacterial reverse mutation assay. The class given is cell-based. The conditions noted are these: presence or absence of microsomal (S9) enzymes. From the text: Therefore, Compound 12 was judged to be not mutagenic.

On to `CS(=O)(=O)c1cccc(C[C@H](NC(=O)c2c(Cl)cc3c(c2Cl)CCN(C(=O)c2ccc4ccoc4c2)C3)C(=O)O)c1` [Compound 12], for which the “Ames assay, revertants per plate” value was “not mutagenic”.
